Reference: publication PMC10714400, “Antimicrobial Peptide–Peptoid Hybrids with and without Membrane Disruption” (ACS Infectious Diseases, 2023)
Values after ≈ are worked out from the molar mass of the structure shown. “Also recorded” adds a separate entry of the source. Where two headings read alike, the source gives them in different places. Where a SMILES comes first, the peptide text is derived from it. [ ]: non-standard residue; d: D form. Nleu = CC(C)CNCC(=O)O; Nlys = NCCCCNCC(=O)O

How the values were obtained:
[1] = test system: human red blood cells (hRBC); assay: Minimum hemolytic concentration (MHC); assay type: cell-based; conditions: for MHC (hemolysis): red cells of human
From the text: We also measured minimal hemolysis concentrations (MHC) on human red blood cells by serial 2-fold dilution as an indication of toxicity against eukaryotic cells (Table 1).

P. aeruginosa PAO1 = assay: Time–kill assay; assay type: cell-based, Pseudomonas aeruginosa; conditions: P. aeruginosa PAO1, dilute MH at pH 8.5
From the text: (§1) Figure 1 Killing profile of selected compounds on bacteria a) against E. coli W3110 measured in full MH at pH 7.4, b) against P. aeruginosa PAO1 in full MH at pH 7.4, c) against E. coli W3110 in diluted MH at pH 8.5, and d) against P. aeruginosa PAO1 in dilute MH at pH 8.5. The assay was repeated twice in triplicate, and the data represent the mean ± SD, n = 6.

E. coli W3110 [2] = assay: NPN outer membrane permeability assay; assay type: cell-based, Escherichia coli; conditions: not told
Experimental: Figure 4 Interactions of peptide–peptoid hybrids with bacterial outer and inner membranes of E. coli. (a, b) NPN outer membrane permeability assay. E. coli W3110 bacteria were treated with increasing compound concentrations in the presence of 10 μM NPN. The fluorescence intensity (λex = 340 nm, λem = 415 nm) was measured within 5 min. Data represent mean ± SD, n = 3. (c, d) DiSC3(5) inner membrane depolarization assay. E. coli W3110 bacteria were treated with increasing compound concentrations in the presence of 2 μM DiSC3(5). The fluorescence intensity (λex = 610 nm, λem = 660 nm) was measured within 5 min after treatment, and the data represent mean ± SD, n = 3.
A single colony of P. aeruginosa PAO1 and E. coli W3110 was grown overnight while being shaken (150 rpm) in LB-broth (5 mL) at 37 °C. 100 μL of the overnight culture was regrown in 10 mL of LB broth with shaking (200 rpm) to the exponential phase (OD600 = 1, corresponding to 10^9 CFU/mL). Bacteria were washed three times with HEPES buffer (5 mM HEPES, 5 mM glucose, pH 7.4), but not diluted yet to their final concentration. 200 μL of peptide samples was added to the first well of 96-well plates (black wells, flat bottom, BRAND GmbH Wertheim, Germany), 100 μL of HEPES/glucose buffer with 10 μM N-phenyl-1-naphthylamine (NPN, purchased from Acros Organics) was added in all the wells, and the compounds were diluted serially by 1/2 (add a control with a final volume of 200 μL with 10 μM NPN in buffer only). Ca. 10 min before the measurement and the final dilution of the bacteria, the plates and the 10 μM NPN in HEPES/glucose buffer (for bacteria dilution) were incubated at 37 °C (prior to the dilution of the bacteria with buffer containing NPN 10 μM). Later, the bacteria were diluted to OD600 = 0.5 with the NPN in HEPES/glucose buffer. 100 μL of the bacterial suspension was added to each well. In this case, the final OD of bacteria was 0.25, the final concentration of the desired compound 64 μg/mL, and NPN 10 μM. The control wells are buffer containing NPN (10 μM, 200 μL) and bacterial suspension containing NPN in HEPES buffer. The plate was measured with a Tecan instrument Infinite M1000 within 5 min. The plate was enabled to shake for 5 s before measurement. The excitation wavelength used was 340 ± 5 nm, and emission wavelength was 415 ± 5 nm. The assay was repeated at least three times.

E. coli W3110 [3] = assay: Time–kill assay; assay type: cell-based, Escherichia coli; conditions: E. coli W3110, diluted MH at pH 8.5
From the text: as §1

[4] = Lipid vesicle leakage assay; conditions: 10 mM TRIS, 107 mM NaCl, pH 7.4; for Vesicle leakage activity on EYPC vesicles: egg yolk phosphatidyl choline vesicles; for Vesicle leakage activity on EYPG vesicles: fluorescein-loaded anionic EYPG vesicles
Experimental: (c) Vesicle leakage assay for a selection of compounds.
EYPG - EB11 1 EYPC - EB11
Figure S2: Vesicle leakage experiments using 5(6)-carboxyfluorescein induced by peptides. EYPG and EYPC
compound was added after 45 sec. After 240 seconds, 30 µL Triton X-100 1.2% was added for full release of […]

[5] = Circular dichroism, α-helical content; assay type: physicochemical; conditions: 0.1 mg/mL; for CD %α with 5 mM DPC: 10 mM phosphate buffer pH 7.4, 5 mM DPC; for CD %α with 20% TFE: 10 mM phosphate buffer pH 7.4, 20% TFE
P. aeruginosa PA14 = test system: P. aeruginosa PA14
How it was run: (§2)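 MIC read visually after MTT staining: lowest compound concentration preventing visible growth (yellow wells). Inoculum ~5 × 10^5 CFU per well in MH broth; static incubation at 37 °C for ca. 18 h.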

S. epidermis = test system: S. epidermis
How it was run: as §2

S. maltophilia = test system: S. maltophilia
How it was run: as §2

B. cenocepacia = test system: B. cenocepacia
How it was run: as §2

[6] = Table S3, […] MH at pH 8.5, 16-20 hours at 37 °C

Molecule | MHC [1] | Outer membrane permeabilization (NPN) (E. coli W3110 [2]) | Vesicle leakage activity on EYPC vesicles [4] | Vesicle leakage activity on EYPG vesicles [4] | CD %α with 5 mM DPC ([5]; DichroWeb, Contin-LL) | CD %α with 20% TFE ([5]; DichroWeb, Contin-LL) | CD %α with 5 mM DPC ([5]; Table S2) | CD %α with 20% TFE ([5]; Table S2) | MIC P. aeruginosa PA14 (P. aeruginosa PA14; [6]) | MIC S. epidermis (S. epidermis; Table S3, […] MH at pH 8.5) | MIC S. maltophilia (S. maltophilia; Table S3, […] MH at pH 8.5) | MIC P. aeruginosa PA14, […] MH at pH 8.5 (P. aeruginosa PA14; CSV) | MIC P. aeruginosa PA14, full MH at pH 7.4 (P. aeruginosa PA14; CSV, full MH at pH 7.4) | MIC P. aeruginosa PA14 (P. aeruginosa PA14; MH pH 7.4, 16–20 h at 37 °C) | MIC S. epidermis, […] MH at pH 8.5 (S. epidermis; CSV, […] MH at pH 8.5) | MIC S. epidermis, full MH at pH 7.4 (S. epidermis; CSV, full MH at pH 7.4) | MIC S. epidermis (S. epidermis; MH pH 7.4, 16–20 h at 37 °C) | MIC S. maltophilia, […] MH at pH 8.5 (S. maltophilia; CSV, […] MH at pH 8.5) | MIC S. maltophilia, full MH at pH 7.4 (S. maltophilia; CSV, full MH at pH 7.4) | MIC S. maltophilia (S. maltophilia; MH pH 7.4, 16–20 h at 37 °C) | also measured
CC(C)C[C@H](NC(=O)CN(CC(C)C)C(=O)[C@H](CC(C)C)NC(=O)CN(CCCCN)C(=O)[C@H](CC(C)C)NC(=O)CN(CC(C)C)C(=O)[C@H](CCCCN)NC(=O)CN(CC(C)C)C(=O)[C@H](CC(C)C)NC(=O)CN(CCCCN)C(=O)[C@@H](N)CCCCN)C(N)=O [EB9, KkLlKlLkLlL] (H-K[Nlys]L[Nleu]K[Nleu]L[Nlys]L[Nleu]L-NH2) | >2000 µg/mL | significant outer membrane permeabilization | no activity | weak or no vesicle leakage activity; also recorded: inactive | 11% | 13% | 11% | 13% | 2 µg/mL (≈ 1.51 µM) | 2 µg/mL (≈ 1.51 µM) | 8 µg/mL (≈ 6.05 µM) |  |  |  |  |  |  |  |  |  | Hemolysis [1]: none of them showed any measurable hemolysis; Time–kill, killing profile (P. aeruginosa PAO1): killed P. aeruginosa, however at a rather slow rate; Time–kill, killing profile (E. coli W3110 [3]): Bacteria could still be detected after 6 h; MIC B. cenocepacia (B. cenocepacia; 4 h, pH 8.5): >32 µg/mL
H-KKLLKLLKLLL-NH2 [ln65, reference compound] |  |  |  |  | 73% | 64% | 73% | 64% | 2 µg/mL | 1 µg/mL | 4 µg/mL | 2 ug/mL | 3 ug/mL | 2 to 4 µg/mL | 1 ug/mL | 2 ug/mL | 2 µg/mL | 4 ug/mL | 2 ug/mL | 2 µg/mL | MHC ([1]; CSV): 125 µg/mL; MIC B. cenocepacia, full MH at pH 7.4 (B. cenocepacia; CSV, full MH at pH 7.4): >32 ug/mL; MIC B. cenocepacia (B. cenocepacia; MH pH 7.4, 16–20 h at 37 °C): >32 µg/mL
CC(C)C[C@H](NC(=O)[C@H](CCCCN)NC(=O)CNCCCCN)C(=O)N[C@@H](CC(C)C)C(=O)N[C@@H](CCCCN)C(=O)N[C@@H](CC(C)C)C(=O)N[C@@H](CC(C)C)C(=O)N[C@@H](CCCCN)C(=O)N[C@@H](CC(C)C)C(=O)N[C@@H](CC(C)C)C(=O)N(CC(N)=O)CC(C)C [EB1] (H-[Nlys]KLLKLLKLL[Nleu]-NH2; N-terminus assumed) | 1000 µg/mL |  | very low levels of activity | very strong activities | 30% | 26% | 30% | 26% |  |  |  |  |  |  |  |  |  |  |  |  | MHC (hemolysis) [1]: 250 to 1000 µg/mL; MIC P. aeruginosa PA14, full MH at pH 7.4 (P. aeruginosa PA14; PA14, 4 h, pH 7.4): 4 ug/mL; MIC P. aeruginosa PA14 (P. aeruginosa PA14; PA14, pH 7.4): 4 µg/mL (≈ 3.03 µM); MIC P. aeruginosa PA14 (P. aeruginosa PA14; PA14, pH 8.5): 2 µg/mL (≈ 1.51 µM); MIC S. epidermis, full MH at pH 7.4 (S. epidermis; 4 h, pH 7.4): 6 ug/mL; MIC S. epidermis (S. epidermis; pH 7.4): 4 to 8 µg/mL; MIC S. maltophilia, full MH at pH 7.4 (S. maltophilia; 4 h, pH 7.4): 3 ug/mL; MIC S. maltophilia (S. maltophilia; pH 7.4): 2 to 4 µg/mL; MIC B. cenocepacia, full MH at pH 7.4 (B. cenocepacia; 4 h, pH 7.4): >32 ug/mL; MIC B. cenocepacia (B. cenocepacia; pH 7.4): >32 µg/mL
CC(C)C[C@H](NC(=O)[C@H](CC(C)C)NC(=O)[C@H](CC(C)C)NC(=O)[C@H](CCCCN)NC(=O)[C@H](CC(C)C)NC(=O)[C@H](CC(C)C)NC(=O)CN(CCCCN)C(=O)CN(CC(C)C)C(=O)CN(CC(C)C)C(=O)CN(CCCCN)C(=O)CNCCCCN)C(N)=O [EB5, kkllkLLKLLL] (H-[Nlys][Nlys][Nleu][Nleu][Nlys]LLKLLL-NH2) | 1000 µg/mL | permeabilized the outer membrane |  |  |  |  |  |  |  |  |  |  |  |  |  |  |  |  |  |  | MHC (hemolysis) [1]: 250 to 1000 µg/mL; MIC P. aeruginosa PA14, full MH at pH 7.4 (P. aeruginosa PA14; PA14, 4 h, pH 7.4): 6 ug/mL; MIC P. aeruginosa PA14 (P. aeruginosa PA14; PA14, pH 7.4): 4 to 8 µg/mL; MIC P. aeruginosa PA14 (P. aeruginosa PA14; PA14, pH 8.5): 2 µg/mL (≈ 1.51 µM); MIC S. epidermis, full MH at pH 7.4 (S. epidermis; 4 h, pH 7.4): 6 ug/mL; MIC S. epidermis (S. epidermis; 4 h, pH 8.5): 2 µg/mL (≈ 1.51 µM); MIC S. epidermis (S. epidermis; pH 7.4): 4 to 8 µg/mL; MIC S. maltophilia, full MH at pH 7.4 (S. maltophilia; 4 h, pH 7.4): 8 ug/mL; MIC S. maltophilia (S. maltophilia; 4 h, pH 8.5): 4 to 8 µg/mL; MIC S. maltophilia (S. maltophilia; pH 7.4): 8 µg/mL (≈ 6.05 µM); MIC B. cenocepacia, full MH at pH 7.4 (B. cenocepacia; 4 h, pH 7.4): >32 ug/mL; MIC B. cenocepacia (B. cenocepacia; pH 7.4): >32 µg/mL
CC(C)C[C@H](NC(=O)[C@H](CC(C)C)NC(=O)[C@H](CC(C)C)NC(=O)[C@@H](CCCCN)NC(=O)[C@H](CC(C)C)NC(=O)[C@H](CC(C)C)NC(=O)[C@@H](CCCCN)NC(=O)[C@H](CC(C)C)NC(=O)[C@H](CC(C)C)NC(=O)[C@@H](CCCCN)NC(=O)[C@H](N)CCCCN)C(N)=O [ln69, kkLLkLLkLLL, reference compound] (H-[dK][dK]LL[dK]LL[dK]LLL-NH2) | 1000 µg/mL |  |  |  | 61% | 34% | 61% | 34% | 2 to 4 µg/mL | 1 µg/mL (≈ 0.757 µM) | 2 µg/mL (≈ 1.51 µM) | 3 ug/mL | 2 ug/mL | 2 µg/mL (≈ 1.51 µM) | 1 ug/mL | 3 ug/mL | 2 to 4 µg/mL | 2 ug/mL | 2 ug/mL | 2 µg/mL (≈ 1.51 µM) | MIC B. cenocepacia, full MH at pH 7.4 (B. cenocepacia; CSV, full MH at pH 7.4): >32 ug/mL; MIC B. cenocepacia (B. cenocepacia; MH pH 7.4, 16–20 h at 37 °C): >32 µg/mL
